The source made the active and inactive calls. No cut-off for these calls is given here.
What was measured:
[1] = Toxicity in zebrafish assessed as malformation in animal at 100 uM measured 96 hrs post-fertilization; parameters: species or system Danio rerio; conditions: in vivo
[2] = biological target: T1, Acetylcholinesterase (Homo sapiens, UniProt P22303); test: Binding affinity to AChE (unknown origin) assessed as dissociation constant by MST assay
[3] = biological target: T1, Acetylcholinesterase; test: Inhibition of AChE (unknown origin) using ATCI as substrate preincubated for 20 mins followed by substrate addition measured after 30 mins by DTNB assay
[4] = Toxicity in zebrafish assessed as change in heart rate at 1 to 100 uM measured 96 hrs post-fertilization; parameters: species or system Danio rerio; conditions: in vivo, dose 1-100 µM
[5] = organism: Danio rerio; test: Anti-alzheimer activity in AlCl3-treated zebrafish assessed as increase in movement speed at 25 to 75 uM treated for 72 hrs with medium replacement containing compound daily by light/dark cycle behavioral test; format: functional, organism-based; conditions: dose 25-75 µM
[6] = organism: Danio rerio; test: Anti-alzheimer activity in AlCl3-treated zebrafish assessed as inhibition of apoptosis in brain treated for 72 hrs with medium replacement containing compound daily by AO staining based analysis; format: functional, organism-based; conditions: dose 25-75 µM
[7] = test system: SH-SY5Y; test: Neuroprotective effect against H2O2-induced cell injury in human SH-SY5Y cells assessed as cell survival at 25 uM preincubated for 1 hr followed by H2O2 addition measured after 2 hrs by MTT assay (reference value: 57.76 %); format: functional; conditions: time 3 hrs, read-out: Activity
[8] = organism: Danio rerio; test: Anti-alzheimer activity in AlCl3-treated zebrafish assessed as increase in movement distance at 25 to 75 uM treated for 72 hrs with medium replacement containing compound daily by light/dark cycle behavioral test; format: functional, organism-based; conditions: dose 25-75 µM
[9] = biological target: T1, Acetylcholinesterase; test: Mixed competitive inhibition of AChE (unknown origin) at 2 to 8 uM by DTNB assay; conditions: dose 2-8 µM
[10] = Toxicity in zebrafish assessed as decrease in survival rate at 100 uM measured 96 hrs post-fertilization; parameters: species or system Danio rerio; conditions: in vivo
[11] = Toxicity in zebrafish assessed as deformaties in animal at 100 uM measured 96 hrs post-fertilization; parameters: species or system Danio rerio; conditions: in vivo
[12] = test system: SH-SY5Y; test: Neuroprotective effect against H2O2-induced cell injury in human SH-SY5Y cells assessed as cell survival at 25 to 100 uM preincubated for 1 hr followed by H2O2 addition measured after 2 hrs by MTT assay (reference value: 57.76 %); format: functional; conditions: dose 25-100 µM, time 3 hrs

T1 sequence (P22303 whole entry): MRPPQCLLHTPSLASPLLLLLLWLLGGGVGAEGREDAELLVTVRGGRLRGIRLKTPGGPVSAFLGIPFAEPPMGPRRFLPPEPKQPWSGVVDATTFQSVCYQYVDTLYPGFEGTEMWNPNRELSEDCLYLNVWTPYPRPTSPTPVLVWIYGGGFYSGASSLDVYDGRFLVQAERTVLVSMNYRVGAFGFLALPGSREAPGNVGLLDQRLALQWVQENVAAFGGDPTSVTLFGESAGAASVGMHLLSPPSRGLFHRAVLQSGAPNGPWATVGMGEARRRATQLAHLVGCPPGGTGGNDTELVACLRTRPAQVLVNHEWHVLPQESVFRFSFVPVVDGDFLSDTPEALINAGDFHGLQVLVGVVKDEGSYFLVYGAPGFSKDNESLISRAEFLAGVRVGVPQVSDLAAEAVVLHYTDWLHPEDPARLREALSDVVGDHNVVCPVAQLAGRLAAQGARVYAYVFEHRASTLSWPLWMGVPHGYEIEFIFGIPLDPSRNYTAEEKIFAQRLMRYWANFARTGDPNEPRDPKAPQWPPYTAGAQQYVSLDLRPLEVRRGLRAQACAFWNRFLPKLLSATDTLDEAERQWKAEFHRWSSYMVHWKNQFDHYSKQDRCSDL

In the case of `C[C@@H]1CC[C@]2(C(=O)NCc3ccccc3Cl)CC[C@]3(C)C(=CC[C@@H]4[C@@]5(C)C[C@@H](O)[C@H](O)[C@@](C)(CO)[C@@H]5CC[C@]43C)[C@@H]2[C@]1(C)O`, the Activity [1] is reported as “Toxic”, the Kd [2] is reported as 5.37 µM and the IC50 [3] is reported as 3.7 µM. The Activity [4] was “Non-toxic”, the Activity [5] was “Active” and the Activity [6] was “Dose-dependent-effect”. The viability at 25 µM [7] was 80%, the Activity [8] was “Active” and the inhibition [9] was “Active”. For the same compound, the Activity [10] was “Toxic”, the Activity [11] was “Toxic” and the Activity [12] was greater than 57.76%.

From ChEMBL document CHEMBL6103578, “Design and synthesis three novel series of derivatives using natural acetylcholinesterase inhibitor-RLMS as template and in vitro, in vivo and in silico activities verification” (Eur J Med Chem, 2025)
